In data set [1] the test system is 3D cardiac tissues (hiPSC-derived cardiomyocytes). Here is the method:
To generate 3D cardiac tissues, 12-day differentiated cardiac cells were detached from culture wells using accutase (Stem Cell Technologies), suspended in RPMI-B27medium containing Y-27632 (5 uM) to reach a final concentration of 1.5×10^8 cells/mL. Casting molds were prepared by placing the tissue holder and PDMS molds in 96-well culture plates. For each tissue, 12 μL cell suspension was loaded into the cell loading channel. For florescence-labeled cardiac tissue, 12 μL cell suspension was mixed briefly with ˜20 FluoSpheres polystyrene microspheres (diameter 15 μm, Life Technologies) and pipetted into cell loading channels. The 96-well plates were placed in a 37° C., 5% CO2 culture incubator for 2 hours. 0.20 mL of cell culture medium was then added per well for continued culture. After one day of culture, media was changed to RPMI-B27 medium without Y-27632 and changed every day.
Cardiac tissue contractility was assessed based on the recorded video using IMARIS software. The cardiac tissues were labeled with fluorescence beads, as described above. The video was exported as image stacks for IMARIS tracking analysis. The software can identify the contraction and relaxation events based on the relative positions of the florescence beads during the entire tissue beating sequence. These positions were recorded, and the relevant contractility parameters were calculated from the temporal change of these positions.
Toxicity studies were performed using a Zeiss fluorescence microscope, within a closed environment chamber maintaining constant 37° C. temperature and 5% CO2 humidified air for long time lapse imaging of live cells. An experiment design program in Zen software was used to create an automatic measurement program. For chronic drug response, videos were recorded for each well at every 1 h interval.
The videos were recorded at cumulative concentrations 1 hr before measurement, and processed using IMARIS software.

In another data set the test system is Cardiac spheroids. Briefly: Toxicity assay based on ATP activity (CellTiter-Glo 3D cell viability assay). Also noted: species or system human. The settings on record: 1 hr incubation, normalized to drug-free controls. Background: Cellular ATP, detected with luciferase, serves as a proxy for viable cell number.
Data set [2] has as its system iPSC-derived cardiomyocytes monolayer. In kind it is cell-based. The settings on record: human; for Time at which significant reduced beating speed was observed / Time of total arrest of beating: 2 days. Here is the method: The 12-day differentiated cardiomyocytes were detached using accutase and suspended in RPMI-B27 medium containing Y-27632 (5 uM). The cell suspension was mixed with FluoSpheres polystyrene microspheres, and loaded into matrigel or fibronectin coated 384-well microplate (Greiner) or 96-well tissue culture plates at 0.25˜0.30 *10^6cells/50˜100 microspheres/cm^2.
The videos were recorded for each well at every 1 hr interval and processed using IMARIS software.

Each structure is given as a SMILES string. Where two headings read alike, the source gives them in different places.

Experimental for Cardiac spheroids: Cardiac spheroids were incubated with various concentrations of compounds dissolved in culture medium for 1 hr, and cell viability was subsequently measured by CellTiter-Glo® 3D cell viability assay (Promega), which determines the number of viable cells in culture based on quantitation of the ATP present. Data is normalized to drug-free controls. Data from the same treatment on 3 occasions were averaged to represent the mean ATP measurement.

In the case of `CCS(=O)(=O)N(C)[C@H]1c2cc(C#N)ccc2OC(C)(C)[C@@H]1O` (racemic) [chromanol 293B], the “Concentration at which complete arrest of contraction was observed” value (from here on “Concentration … of contraction was observed”) in data set [1] is 200 µM. `CC1(C)S[C@@H]2[C@H](NC(=O)[C@H](N)c3ccccc3)C(=O)N2[C@H]1C(=O)O` [ampicillin, Ampicillin]: in data set [1] (human, 1 h), the “Concentration up to which negligible beating rate changes were observed” value is “up to 1 mM”. Further, in the data set with Cardiac spheroids, the “Concentration up to which negligible / no significant toxicity was detected (ATP-based cell viability)” value is at most 10000 µM. Take `CC[C@H]1OC(=O)[C@H](C)[C@@H](O[C@H]2C[C@@](C)(OC)[C@@H](O)[C@H](C)O2)[C@H](C)[C@@H](O[C@@H]2O[C@H](C)C[C@H](N(C)C)[C@H]2O)[C@](C)(O)C[C@@H](C)C(=O)[C@H](C)[C@@H](O)[C@]1(C)O` [erythromycin]: in data set [1] (human, 1 h), the “Concentration … of contraction was observed” value was found to be 10 µM. Moreover, the “Concentration up to which negligible / no significant toxicity was detected (ATP-based cell viability)” value in the data set on Cardiac spheroids is reported as “up to 500 μM”. On to `CN(C)C(=N)N=C(N)N` [metformin], for which the “Change in beating rates” value in data set [1] is “less pronounced changes in beating rates”. For `N=C(N)c1ccc(OCCCCCOc2ccc(C(=N)N)cc2)cc1` [pentamidine, Pentamidine], in data set [2] (1 h), the “Concentration at which complete arrest of beating was observed” value was 100 µM and the “Concentration showing pronounced changes in contraction speed” value is 10 µM. In addition, in data set [2] (5 μM), the “Time at which significant reduced beating speed was observed” value was 28 h and the “Time of total arrest of beating” value was 44 h. Further, in data set [2] (10 μM), the “Time at which significant reduced beating speed was observed” value stood at 4 h and the “Time of total arrest of beating” value amounted to 30 h. As for `C=C[C@H]1C[N@@]2CC[C@H]1C[C@@H]2[C@@H](O)c1ccnc2ccc(OC)cc12` [quinidine], in data set [1] (human, 1 h), the “Concentration … of contraction was observed” value was determined as 10 µM.

With `CN(CCOc1ccc(CC2SC(=O)NC2=O)cc1)c1ccccn1` (stereo not shown) [rosiglitazone, Rosiglitazone], in data set [1] (human, 1 h), the “Concentration … of contraction was observed” value was determined as 50 µM.

For the compound `Cc1c(C)c2c(c(C)c1O)CCC(C)(COc1ccc(CC3SC(=O)NC3=O)cc1)O2` (stereo not shown) [troglitazone], the “Concentration … of contraction was observed” value in data set [1] (human, 1 h) was 50 µM.

In the case of `N[C@@H]1[C@H]2CN(c3nc4c(cc3F)c(=O)c(C(=O)O)cn4-c3ccc(F)cc3F)C[C@@H]12` [trovafloxacin], in data set [1] (human, 1 h), the “Concentration … of contraction was observed” value came out at 100 µM.

The values are drawn from patent US20180044640A1, “CONTRACTILE CELLULAR CONSTRUCT FOR CELL CULTURE” (Agency for Science, Technology and Research, priority 2015, published 2018).
